Experimental data as given in patent publication US20190234940A1, “METABOLIC RESTRICTION IN CELL-BASED ASSAYS” (priority 2016, published 2019).
Where a name gives a salt, the structure may show the parent alone. Read-outs that look alike come from different tables or passages of the source. One block for each compound: values may come before it.

Tests used:
[1] = biological target: T1, CYP1A2 (Homo sapiens, UniProt P05177); experiment: P450-Glo CYP1A2 activity in HBV-infected HepaRG cells; format: cell-based; conditions: day 11 p.i.
T1 construct: CYP1A2, CYP2C9, and CYP3A4 activity were determined in HBV-infected HepaRG cells; endogenous in cells; host or cells: differentiated HepaRG cells infected with HBV
T1 sequence (P05177 1-516): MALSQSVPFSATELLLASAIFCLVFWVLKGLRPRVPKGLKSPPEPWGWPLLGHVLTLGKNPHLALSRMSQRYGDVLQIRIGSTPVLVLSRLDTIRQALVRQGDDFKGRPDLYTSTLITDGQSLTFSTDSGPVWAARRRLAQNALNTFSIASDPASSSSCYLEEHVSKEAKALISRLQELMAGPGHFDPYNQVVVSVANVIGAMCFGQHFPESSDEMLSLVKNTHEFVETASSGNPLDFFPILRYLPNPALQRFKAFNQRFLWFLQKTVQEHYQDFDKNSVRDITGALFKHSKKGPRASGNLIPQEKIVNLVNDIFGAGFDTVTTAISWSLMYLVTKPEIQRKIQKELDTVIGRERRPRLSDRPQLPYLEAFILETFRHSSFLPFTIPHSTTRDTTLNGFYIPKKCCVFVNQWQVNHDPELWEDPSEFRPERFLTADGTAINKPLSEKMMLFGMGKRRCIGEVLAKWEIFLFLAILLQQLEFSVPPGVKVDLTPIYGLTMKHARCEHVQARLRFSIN

[2] = biological target: T2, CYP3A4 (Homo sapiens, UniProt P08684); experiment: P450-Glo CYP3A4 activity in HBV-infected HepaRG cells; format: cell-based; conditions: day 11 p.i.
T2 construct: CYP1A2, CYP2C9, and CYP3A4 activity were determined in HBV-infected HepaRG cells; endogenous in cells; host or cells: differentiated HepaRG cells infected with HBV
T2 sequence (P08684 whole entry): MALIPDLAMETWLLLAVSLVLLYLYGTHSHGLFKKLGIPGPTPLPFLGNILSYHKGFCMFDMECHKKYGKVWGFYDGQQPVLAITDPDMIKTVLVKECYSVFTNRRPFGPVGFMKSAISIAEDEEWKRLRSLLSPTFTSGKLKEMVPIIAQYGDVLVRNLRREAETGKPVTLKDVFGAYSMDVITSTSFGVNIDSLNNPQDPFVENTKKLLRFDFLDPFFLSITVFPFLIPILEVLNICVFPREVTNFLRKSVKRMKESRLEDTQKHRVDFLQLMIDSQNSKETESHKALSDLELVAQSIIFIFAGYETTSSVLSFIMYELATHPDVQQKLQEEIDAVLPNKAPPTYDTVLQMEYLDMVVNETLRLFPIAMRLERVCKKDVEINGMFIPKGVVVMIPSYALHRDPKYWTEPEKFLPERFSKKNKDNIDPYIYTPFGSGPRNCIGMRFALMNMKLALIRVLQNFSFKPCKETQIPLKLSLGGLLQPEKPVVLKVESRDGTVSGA

[3] = biological target: T3, CYP2C9 (Homo sapiens, UniProt P11712); experiment: P450-Glo CYP2C9 activity in HBV-infected HepaRG cells
T3 sequence (P11712 whole entry): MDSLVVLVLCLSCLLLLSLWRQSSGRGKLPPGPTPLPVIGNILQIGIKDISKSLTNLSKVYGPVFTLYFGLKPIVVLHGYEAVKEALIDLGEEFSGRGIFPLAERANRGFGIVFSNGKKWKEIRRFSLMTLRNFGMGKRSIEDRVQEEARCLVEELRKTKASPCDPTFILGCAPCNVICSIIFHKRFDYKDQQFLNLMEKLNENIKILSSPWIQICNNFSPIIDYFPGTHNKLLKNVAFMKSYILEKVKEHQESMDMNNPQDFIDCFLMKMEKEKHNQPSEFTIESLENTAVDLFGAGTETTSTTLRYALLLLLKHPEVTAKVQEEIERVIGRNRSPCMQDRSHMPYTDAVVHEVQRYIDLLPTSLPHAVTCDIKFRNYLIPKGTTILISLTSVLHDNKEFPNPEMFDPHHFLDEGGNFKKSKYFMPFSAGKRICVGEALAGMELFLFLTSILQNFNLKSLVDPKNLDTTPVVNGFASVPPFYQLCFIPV

[4] = biological target: T3, CYP2C9
[5] = SKF-525A 100 or 200 μM 1 h twice, or 2 or 20 μM twice for 3 days
[6] = ABT 10 or 20 mM 1 h twice, or 0.1 or 0.2 mM twice for 3 days (days 5 and 8 p.i.)

CYP1A2 inhibition relative to other CYPs [1, 5]: inhibited CYP1A2 less
CYP3A4 inhibition relative to other CYPs [2, 5]: inhibited CYP3A4 better than CYP2C9
Compound: CCCC(C(=O)OCCN(CC)CC)(c1ccccc1)c1ccccc1 [SKF-525A, proadifen hydrochloride]

inhibition of CYP1A2 [1, 6]: > 90%
inhibition of CYP2C9 ([3]; ABT 10 or 20 mM 1 h twice, or 0.1 or 0.2 mM twice for 3 days (days 5 and 8 p.i.), day 11 p.i.): 72%-75%
inhibition of CYP3A4 [2, 6]: > 90%
Compound: Nn1nnc2ccccc21 [ABT, 1-aminobenzotriazole]

Compound: Cc1nc2c([nH]1)c(=O)n(C)c(=O)n2Cc1ccco1 [furafylline]
CYP2C9 inhibition ([3]; furafylline alone, titration): also inhibit

Compound: CC(=O)N1CCN(c2ccc(OCC3COC(Cn4ccnc4)(c4ccc(Cl)cc4Cl)O3)cc2)CC1 (stereo not shown) [ketoconazole]
CYP2C9 inhibition [4]: also inhibit
